Key:
[1] = test system: preclinical diabetes model; assay: Plasma GLP-1 levels in preclinical diabetes model (FIG. 2); format: in vivo
[2] = test system: Human NCI-H716 cells; assay: Secretion of GLP-1 in Human NCI-H716 cells (FIG. 1); format: cell-based
Text: FIG. 1 is a graph illustrating the effects of compositions in Human NCI-H716 cells according to an implementation.

COc1ccc2cc3[n+](cc2c1OC)CCc1cc2c(cc1-3)OCO2 [Berberine]
plasma GLP-1 levels [1]: modulate plasmas GLP-1 levels | secretion of GLP-1 [2]: modulate the secretion of GLP-1 to various degrees

O=C(O[C@@H]1Cc2c(O)cc(O)cc2O[C@@H]1c1cc(O)c(O)c(O)c1)c1cc(O)c(O)c(O)c1 [epigallocatechin gallate]
secretion of GLP-1 [2]: modulate the secretion of GLP-1 to various degrees

CC/C=C\C/C=C\C/C=C\CCCCCCCC(=O)O [α-linolenic acid]
plasma GLP-1 levels [1]: modulate plasmas GLP-1 levels | secretion of GLP-1 [2]: modulate the secretion of GLP-1 to various degrees

Reference: patent publication US20250205300A1, “PLANT-BASED COMPOSITIONS AND METHODS FOR HORMONE SIGNALING, BLOOD GLUCOSE CONTROL, APPETITE CONTROL, AND WEIGHT MANAGEMENT” (Alpine Biotech, LLC, priority 2023, published 2025)
